These results are taken from patent US7118745B1, “Engineering antibodies that bind irreversibly” (The Regents of the University of California, priority 1999, dated 2006).

One series deals with S95C Fab light chain. Nature of the series: Covalent cross-linking of 111In-labeled chelates to S95C Fab in culture medium (SDS-PAGE, phosphorimage). The class given is biochemical, mouse/human chimeric. The conditions noted are these: 111In-labeled chelate, culture medium containing S95C mutant, 30 minutes. The method, then:
FIG. 18 is a phosphorimage of a 15% SDS-PAGE gel of samples incubated 30 minutes at 37° C. Chelates (CABE, CpABE, AABE, ABE) are in lanes 1–4, along with culture medium containing the S95C mutant. The (radiolabeled) band (at 26 kDa) in lane 1 is the crosslink between CABE (our positive control) and S95C Fab light chain. […] No crosslinks are observed with the non-nucleophilic native Fab, nor with the N96C mutant.
100 μl of complete culture medium from S2 cultures expressing each of the CHA255 Chimeric Fabs was mixed with 5 μl of 100 mM DOTA to sequester Cu^2+ from induction of expression. Each chelate was loaded with ^111In as previously described with a specific activity of 200 μCi. Complete metallation was analyzed by TLC as described previously. Specifically, 1 μl of chelate was added to 2.8 μl of 0.1 M citrate buffer (pH 5.5) to which was added 1.2 μl of carrier free ^111In (Nordion) ([…]) and the chelate was analyzed by TLC. 4 μl of loaded chelate was added to the 105 μl of Fab-DOTA in medium. This solution was incubated for 30 min. at room temperature. The reaction was stopped by separation of excess chelate by gel filtration spin chromatography (Penefsky column). 20 μl of eluant was added to 5 μl of sample application buffer containing β-mercaptoethanol (5×SDS PAGE SAB), boiled and reduced for 10 min. at 95° C. This was loaded onto a 1020% SDS-Page gel and electrophoriesed for 1 hr at 200V. The gel was fixed and dried via standard protocols and then exposed to a phosphorimager plate for 12 h. The plate was visualized with a Storm 640 phosphorimager (Molecular Dymanics).
In-labeled electrophilic chelates were incubated in Fab-containing culture medium to investigate whether either of the mutant antibodies would bind irreversibly to its target. Serum-containing culture medium was used as a representation of typical biological media. […] We incubated ^111In-labeled chelates bearing electrophilic acrylamido, chloroproprionamido, or chloroacetamido groups at physiological pH and temperature with raw tissue culture medium from the cells expressing the recombinant antibodies. As a control, an ^111In-labeled chelate bearing the non-electrophilic amino group was also included. At various times after addition of the radioactive chelates, we removed samples from the incubation and applied them to a gel filtration spin column to remove excess radiolabeled chelate.
The samples were analyzed by SDS-PAGE and visualized by phosphorimager. Separation under reducing and denaturing conditions on SDS-PAGE will separate the light chain from the heavy chain of each Fab, functionally destroying the antibody-binding pocket.

The test system of another series is native antibody CHA255. Nature of the series: Control incubation of chelates with native antibody CHA255 (covalent labeling). The class given is biochemical, mouse. The conditions noted are these: indium chelates incubated with native antibody; BABE: after several hours. On the procedure: As a control, the same chelates were incubated with native antibody CHA255, to see if they would covalently label it.

In a further series the target is human serum albumin (Homo sapiens, UniProt P02768). Kind of series: Stability of 111In-labeled bifunctional chelates incubated with human serum albumin (TLC). The class given is in vitro ADME. The conditions noted are these: after 20 hrs; 20 mM Hepes, pH 7.4, 37° C.; 1 mM free sulfhydryl as human serum albumin. The method, then:
The electrophilic chelates AABE, CABE, BABE were labeled with indium-111 and incubated in a Hepes buffered solution at physiological pH and temperature (20 mM Hepes, pH 7.4, 37° C.) containing 1 mM free sulfhydryl groups in the form of human serum albumin-approximating the concentration of thiols in plasma.
The reactive chelates 5–7 and aminobenzyl-EDTA (“ABE”) were labeled with ^111In and analyzed by TLC (50:50 Methanol/10% NaOAc pH8.2) to show complete chelation. To 0.5 mL of human serum albumin solution was added 2 μl of one of the labeled chelates. […] The vials were mixed by manual agitation, and 2 μl was removed and analyzed by TLC.
The fraction unreacted is plotted versus incubation time in FIG. 6. After 20 hrs, >95% of the In-AABE and In-CABE molecules were unreacted, while most of the In-BABE was attached to albumin. This confirmed the expectation that AABE and CABE are stable, and are good candidates for pretargeting. We infer that these chelates should be unreactive in blood for the length of time needed for pretargeting (40 min–4 hrs); if not, many other choices are available.

human serum albumin, sequence (P02768 25-609): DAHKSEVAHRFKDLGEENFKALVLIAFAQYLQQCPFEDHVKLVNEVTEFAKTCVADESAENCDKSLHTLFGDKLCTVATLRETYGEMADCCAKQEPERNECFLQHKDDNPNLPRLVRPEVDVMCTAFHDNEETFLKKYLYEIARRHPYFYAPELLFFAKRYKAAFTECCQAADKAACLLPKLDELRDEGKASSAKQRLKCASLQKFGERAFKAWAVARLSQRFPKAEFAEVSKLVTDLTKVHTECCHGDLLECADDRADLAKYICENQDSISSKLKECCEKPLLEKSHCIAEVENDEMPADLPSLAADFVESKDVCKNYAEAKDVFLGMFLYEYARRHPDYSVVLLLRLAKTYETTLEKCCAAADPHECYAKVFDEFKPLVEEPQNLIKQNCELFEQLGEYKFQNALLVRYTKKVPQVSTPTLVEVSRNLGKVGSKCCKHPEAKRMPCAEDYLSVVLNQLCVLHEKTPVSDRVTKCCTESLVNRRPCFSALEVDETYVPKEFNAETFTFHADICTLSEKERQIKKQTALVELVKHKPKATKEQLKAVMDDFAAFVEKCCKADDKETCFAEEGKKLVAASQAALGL

Turning to `Nc1ccc(CC(CN(CC(=O)O)CC(=O)O)N(CC(=O)O)CC(=O)O)cc1` (stereo not shown) [ABE, aminobenzyl-EDTA, reference compound], the “crosslink of chelate with S95C Fab light chain (radiolabeled 26 kDa band)” value (“crosslink of chelate” below) with S95C Fab light chain is listed as “does not show crosslinks”. In the series with native antibody CHA255, the “covalent attachment to native CHA255” value was “did not covalently attach”.
In the case of `C=CC(=O)Nc1ccc(CC(CN(CC(=O)O)CC(=O)O)N(CC(=O)O)CC(=O)O)cc1` (stereo not shown) [AABE, Acrylamidobenzyl-EDTA], the “crosslink of chelate” value in the series with S95C Fab light chain was 26 kDa band; with S95C Fab light chain (listed as In-AABE), “reacted equally well”. The “covalent attachment to native CHA255” value in the series on native antibody CHA255 is on record as “did not covalently attach”.
Regarding `O=C(O)CN(CC(=O)O)CC(Cc1ccc(NC(=O)CCl)cc1)N(CC(=O)O)CC(=O)O` (stereo not shown) [CABE, chloroacetylamidobenzyl], the “crosslink of chelate” value with S95C Fab light chain is “crosslink”; in the series on S95C Fab light chain (listed as In-CABE), “reacted equally well”. The “covalent attachment to native CHA255” value with native antibody CHA255 is on record as “did not covalently attach”.
Consider `O=C(O)CN(CC(=O)O)CC(Cc1ccc(NC(=O)CBr)cc1)N(CC(=O)O)CC(=O)O` (stereo not shown) [BABE, bromoacetylamidobenzyl], for which, in the series with native antibody CHA255, the “covalent attachment to native CHA255” value was “did react to some degree”. For the same compound, at human serum albumin, the “chelate attached to albumin” value is reported as “most”.
